Values quoted from earlier work, collected in patent publication US20220370378A1 (SOCIETE DES PRODUITS NESTLE S.A., priority 2019, published 2022).

How the values were obtained:
[1] = system: GLUT4 translocation in skeletal muscle cells; conditions: single-dose administration, compared among three inositol isomers
[2] = humans

- mean time to reach the maximum level after ingestion [2]: about 3.8 h
SMILES: O[C@H]1[C@H](O)[C@@H](O)[C@H](O)[C@@H](O)[C@@H]1O [scyllo-inositol, (1r,2r,3r,4r,5r,6r)-Cyclohexane-1,2,3,4,5,6-hexol]
- GLUT4 translocation [1]: most efficiently among three inositol isomers
